Results as given in patent publication US10034827B2, “Skin care product and method of use” (The Procter & Gamble Company, priority 2014, dated 2018).
Residues, ends and D or L forms follow the SMILES beside them. *: point of attachment. Palmitoyl = CCCCCCCCCCCCCCCC(=O)*

How the values were obtained:
[1] = Diamagnetic susceptibility; assay type: physicochemical; conditions: dimensionless
[2] = In vivo skin penetration study #2, Tape Stripping method (magnetic vs non-magnetic applicator); parameters: species or system human
Description: (§1) This method provides a suitable means of measuring the amount of skin care active present in skin, and comparing active versus passive application of the skin care active. Two identical rectangular areas of 15 cm^2 are marked on the volar forearms of volunteers. A measured dose (approximately 30 mg) of the Pal-KTTKS (SEQ ID NO: 1) formulation is applied to the delineated areas using a screw actuated syringe. Active application is carried out on one of the delineated areas using the three-quarter profile of a purpose made applicator (e.g., an applicator presenting one of the magnetic arrays set forth in Table 2). Passive application is accomplished on the other delineated area using the tip of a finger in a sweeping motion identical to that of the active application. The formulation is spread evenly across the entire delineated region using a sweeping motion with a fixed speed of approximately 23 cm/s to […]. The application period is 30 seconds during which time visual inspection is used to ensure even distribution and absorption of the formulation by skin. The application area is then left uncovered for a further 30 minutes to ensure complete absorption. Tape strip samples may be collected and/or analyzed immediately after the complete absorption is ensured or after a waiting period (e.g., after multiple applications of the formulation over multiple hours or days).
(§2) The tape stripping procedure is carried out using 10 commercial pre-cut 22.1 mm tape stripping adhesive discs (e.g., D-SQUAME brand tape strips, available from Cuderm Corporation, or equivalent) with an adhesive area of 3.8 cm^2. The 10 tape strips are applied sequentially to the same sampling site, which ideally enables each tape strip to obtain a sample from deeper within the stratum corneum than the tape strip that preceded it. A 22.1 mm diameter circular region is marked at the center of the application area. A tape stripping adhesive disc is placed over the marked area and even pressure applied using, for example, a neoprene roller, rolled ten times over the adhesive disc. The adhesive disc is removed from the skin surface in a single pulling motion using manual tweezers. To ensure even removal of the skin sample, subsequent discs are removed in a “north, south, east and west” orientation, which is within the skill of the ordinary artisan. Each adhesive disc is non-destructively analyzed for protein content using a suitable instrument (e.g., SquameScan™ 850 instrument commercially available from Heiland Electronics Wetzlar, Germany, or equivalent). The adhesive disc is then immediately placed into a glass vial containing extraction solvent in preparation for subsequent analysis. Solvent extractions are conducted on each tape strip using conventional extraction methods, which are well known to those of ordinary skill in the art, and measuring the amount of Pal-KTTKS (SEQ ID NO: 1) present in the extract, for example, by high performance liquid chromatography (“HPLC”) and/or mass spectrometry.
The procedure is repeated for the remaining nine strips. An additional strip is obtained from outside the area of application of the skin care formulation to serve as a blank sample. The amount of active is normalized to the amount of protein measured. […]

[3] = Ex vivo skin penetration study (Franz cell, magnetic arrays moved above epidermis); assay type: in vitro ADME, human; conditions: arrays 1 (uni-directional, 27 mT) and 2 (bi-directional, overall 21 mT) of Table 1; 400 μg/ml in 50:50 PG:PB pH 4
Description: An ex vivo skin penetration study was conducted to compare the ability of different magnetic arrays to enhance penetration of Pal-KTTKS (SEQ ID NO: 1) into the epidermis of human skin. The dermis and epidermis of human skin samples obtained from donors aged 60-65 years were heat separated and the dermis discarded. 20 μL of a Pal-KTTKS (SEQ ID NO: 1) containing composition (400 μg/ml in 50:50 PG:PB at pH 4) was placed on human epidermis in Franz cell. Different magnetic arrays were positioned approximately 1.0 mm above the epidermis samples and moved over the samples at the speed a user might move a cosmetic applicator when applying a skin care product (e.g., about 20-25 cm/sec). Samples were taken and measured at 0, 1, 2, 4, 6, 8, 24 hours. […] For the bi-directional arrays herein, the “1st layer” refers to the layer closest to the skin-contacting surface of the applicator, and the “2nd layer” refers to the layer disposed on the side of the 1st layer opposite the side closest to the skin-contacting surface.

[4] = In vivo skin penetration study #1, Tape Stripping method (active magnetic array vs passive finger application); parameters: species or system human
Description: An in vivo skin penetration study was conducted to establish the effect of using a skin care product of the present invention by applying a skin care composition comprising Pal-KTTKS (SEQ ID NO: 1) with an applicator comprising a magnetic array. The study compared the penetration of the Pal-KTTKS (SEQ ID NO: 1) in combination with a variety of magnetic arrays (active application) to the penetration of Pal-KTTKS (SEQ ID NO: 1) applied with a finger (passive application). Penetration of Pal-KTTKS (SEQ ID NO: 1) in this example is determined according to the Tape Stripping method. In this example, the level of Pal-KTTKS (SEQ ID NO: 1) present in the extract from each tape strip was measured using HPLC and the results normalized to the protein level measured on the tape strip.
as §1, §2
The procedure is repeated for the remaining nine strips. An additional strip is obtained from outside the area of application of the skin care formulation to serve as a blank sample. […]

[5] = magnetic applicator with array #8, average across all 10 test sites, in ng (unit assumed)
[6] = non-magnetic applicator, average across all 10 test sites, in ng (unit assumed)

diamagnetic susceptibility [1]: approximately −519 | Enhancement value Strips 2-10 (active/passive), Avg ([2]; array #8 vs non-magnetic applicator, average of the enhancement values of all test sites): 4 | Sum 2-10 of Pal-KTTKS recovered, active application, Avg [2, 5]: 42.02 | Sum 6-10 of Pal-KTTKS recovered, active application, Avg [2, 5]: 22.74 | Sum 2-10 of Pal-KTTKS recovered, passive application, Avg [2, 6]: 20.55 | Sum 6-10 of Pal-KTTKS recovered, passive application, Avg [2, 6]: 10.01 | Enhancement (active/passive) ([4]; array #4, tape strips 2-4, from average values of Table 11): 1.54 | Enhancement (active/passive) ([4]; array #4, tape strips 5-7, from average values of Table 11): 2.18 | Enhancement (active/passive) ([4]; array #4, tape strips 8-10, from average values of Table 11): 2.98 | Enhancement (active/passive) ([4]; array #9, tape strips 2-4, from average values of Table 9): 4.19 | Enhancement (active/passive) ([4]; array #9, tape strips 5-7, from average values of Table 9): 2.38 | Enhancement (active/passive) ([4]; array #9, tape strips 8-10, from average values of Table 9): 3.78
SMILES: CCCCCCCCCCCCCCCC(=O)N[C@@H](CCCCN)C(=O)N[C@H](C(=O)N[C@H](C(=O)N[C@@H](CCCCN)C(=O)N[C@@H](CO)C(=O)O)[C@@H](C)O)[C@@H](C)O [Pal-KTTKS, palmitoyl-lysine-threonine-threonine-lysine-serine] (Palmitoyl-KTTKS-OH; C-terminus assumed)
penetration enhancement of Pal-KTTKS into human epidermis [3]: demonstrated the best penetration enhancement | penetration enhancement compared with other magnetic arrays ([4]; magnetic array #4 (uni-directional)): better penetration enhancement than some of the other magnetic arrays tested | penetration enhancement compared with other magnetic arrays ([4]; magnetic array #9 (bi-directional)): better penetration enhancement than some of the other magnetic arrays tested
